Marks after values point to notes of the source that are not given here.
What was measured:
[1] = tested on: Japanese patients with advanced solid tumors; assay: Dose-limiting toxicity and MTD determination, part 1; assay type: in vivo, human; settings: cycle 1; for DLT: stage IV, person
[2] = tested on: Japanese patients with advanced solid tumors; assay: Treatment-related adverse events, part 1; assay type: in vivo, human; settings: for Any AE (treatment-related), All grades / Any AE (treatment-related), Grade 3/4 / Blood creatinine increased (treatment-related AE), All grades / Blood creatinine increased (treatment-related AE), Grade 3/4 / Diarrhea (treatment-related AE), All grades / Diarrhea (treatment-related AE), Grade 3/4 / Fatigue (treatment-related AE), All grades / Fatigue (treatment-related AE), Grade 3/4 / Lymphocytes decreased (treatment-related AE), All grades / Lymphocytes decreased (treatment-related AE), Grade 3/4 / Neutropenia (treatment-related), all grades / Neutropenia (treatment-related), grade 3/4 / Neutrophils decreased (treatment-related AE), All grades / Neutrophils decreased (treatment-related AE), Grade 3/4 / Platelets decreased (treatment-related AE), All grades / Platelets decreased (treatment-related AE), Grade 3/4 / WBCs decreased (treatment-related AE), All grades / WBCs decreased (treatment-related AE), Grade 3/4: part 1, n = 6
[3] = Plasma palbociclib pharmacokinetics, part 1; assay type: in vivo, human; settings: for AUC(0-t): geometric mean (geometric %CV); for half-life: t½, arithmetic mean ± SD
[4] = Plasma palbociclib concentrations with letrozole, part 2; assay type: in vivo, human; settings: palbociclib 125 mg + letrozole 2.5 mg once daily, multiple doses, part 2, day 15 of cycles 1 and 2
advanced solid tumors = assay: Antitumor activity; assay type: in vivo, human
[5] = tested on: estrogen receptor‐positive (ER+) luminal breast cancer cell lines; settings: cited from earlier work
[6] = Trough plasma letrozole concentrations, part 2; assay type: in vivo, human
[7] = 100 mg, part 1, patient: breast cancer (first listed)

## CC(=O)c1c(C)c2cnc(Nc3ccc(N4CCNCC4)cn3)nc2n(C2CCCC2)c1=O [Palbociclib]
[1]; 100 mg and 125 mg once daily, part 1, n = 6 each
  Patients with dose-limiting toxicity per dose level: one patient per dose level
[1]; 100 mg once daily, patient: colon cancer
  DLT: None
[1]; 100 mg once daily, patient: rectal cancer
  DLT: None
[1]; 125 mg once daily, patient: esophageal cancer
  DLT: None
[1]; 125 mg once daily, patient: fibroma
  DLT: None
[1]; 125 mg once daily, patient: rectal cancer
  DLT: None
[2]; 100 mg once daily
  Any AE (treatment-related), All grades: 6 (100) n (%)
  Any AE (treatment-related), Grade 3/4: 4 (67) n (%)
  Blood creatinine increased (treatment-related AE), All grades: 2 (33) n (%)
  Blood creatinine increased (treatment-related AE), Grade 3/4: 0 (0) n (%)
  Diarrhea (treatment-related AE), All grades: 0 (0) n (%)
  Diarrhea (treatment-related AE), Grade 3/4: 0 (0) n (%)
  Fatigue (treatment-related AE), All grades: 0 (0) n (%)
  Fatigue (treatment-related AE), Grade 3/4: 0 (0) n (%)
  Lymphocytes decreased (treatment-related AE), All grades: 1 (17) n (%)
  Lymphocytes decreased (treatment-related AE), Grade 3/4: 1 (17) n (%)
  Neutropenia (treatment-related), all grades: 83%
  Neutropenia (treatment-related), grade 3/4: 67%
  Neutrophils decreased (treatment-related AE), All grades: 5 (83) n (%)
  Neutrophils decreased (treatment-related AE), Grade 3/4: 4 (67) n (%)
  Platelets decreased (treatment-related AE), All grades: 1 (17) n (%)
  Platelets decreased (treatment-related AE), Grade 3/4: 0 (0) n (%)
  WBCs decreased (treatment-related AE), All grades: 4 (67) n (%)
  WBCs decreased (treatment-related AE), Grade 3/4: 2 (33) n (%)
[2]; 125 mg once daily
  Any AE (treatment-related), All grades: 5 (83) n (%)
  Any AE (treatment-related), Grade 3/4: 4 (67) n (%)
  Blood creatinine increased (treatment-related AE), All grades: 0 (0) n (%)
  Blood creatinine increased (treatment-related AE), Grade 3/4: 0 (0) n (%)
  Diarrhea (treatment-related AE), All grades: 2 (33) n (%)
  Diarrhea (treatment-related AE), Grade 3/4: 0 (0) n (%)
  Fatigue (treatment-related AE), All grades: 2 (33) n (%)
  Fatigue (treatment-related AE), Grade 3/4: 0 (0) n (%)
  Lymphocytes decreased (treatment-related AE), All grades: 3 (50) n (%)
  Lymphocytes decreased (treatment-related AE), Grade 3/4: 2 (33) n (%)
  Neutropenia (treatment-related), all grades: 67%
  Neutropenia (treatment-related), grade 3/4: 33%
  Neutrophils decreased (treatment-related AE), All grades: 4 (67) n (%)
  Neutrophils decreased (treatment-related AE), Grade 3/4: 2 (33) n (%)
  Platelets decreased (treatment-related AE), All grades: 2 (33) n (%)
  Platelets decreased (treatment-related AE), Grade 3/4: 1 (17) n (%)
  WBCs decreased (treatment-related AE), All grades: 5 (83) n (%)
  WBCs decreased (treatment-related AE), Grade 3/4: 2 (33) n (%)
[2]; all cohorts (100 mg, 125 mg, 125 mg + letrozole)
  Grade ≥3 treatment-related non-hematologic AEs: No grade ≥3 treatment‐related non‐hematologic AEs were observed
[2]; whole study, 18 patients
  Deaths: No deaths
[3]; 125 mg vs 100 mg, part 1
  Dose proportionality of exposure: higher than dose‐proportional exposure
[3]; 125 mg, single dose, n = 6, median (range)
  Tmax: 4.0 (3.9–8.0) h
[3]; human, plasma, oral, 100 mg
  AUC(0-inf): 1040 ng·h/mL
  Cmax: 41.4 ng/mL
  Tmax: 5 h
[3]; human, plasma, oral, 100 mg, AUClast, single dose, n = 6
  AUC(0-t): 972 ng·h/mL
[3]; human, plasma, oral, 100 mg, AUCτ (= AUC0–24), 100 mg once daily, multiple doses (day 8 of cycle 1), n = 6
  AUC(0-t): 1280 ng·h/mL
[3]; human, plasma, oral, 100 mg, AUCτ (= AUC0–24), single dose, n = 6
  AUC(0-t): 548 ng·h/mL
[3]; human, plasma, oral, 100 mg, 100 mg once daily, multiple doses (day 8 of cycle 1), n = 6
  half-life: 23.8 ± 6.8 h
[3]; human, plasma, oral, 100 mg, single dose, n = 6
  half-life: 25.7 ± 5.3 h
[3]; human, plasma, oral, 125 mg
  AUC(0-inf): 2480 ng·h/mL
  Tmax: 4 to 5 h
  concentration at 4 h: 172 ng/mL
[3]; human, plasma, oral, 125 mg, AUClast, single dose, n = 6
  AUC(0-t): 2400 ng·h/mL
[3]; human, plasma, oral, 125 mg, AUCτ (= AUC0–24), 125 mg once daily, multiple doses (day 8 of cycle 1), n = 6
  AUC(0-t): 2840 ng·h/mL
[3]; human, plasma, oral, 125 mg, AUCτ (= AUC0–24), single dose, n = 6
  AUC(0-t): 1320 ng·h/mL
[3]; human, plasma, oral, 125 mg, 125 mg once daily, multiple doses (day 8 of cycle 1), n = 6
  half-life: 23.2 ± 7.7 h
[3]; human, plasma, oral, 125 mg, single dose, n = 6
  half-life: 23.9 ± 2.7 h
[3]; palbociclib 125 mg alone, day 8 of part 1
  Plasma palbociclib concentration, Predose [Ctrough], geometric mean: 72.8 ng/mL
[4]
  Plasma palbociclib concentration, Predose [Ctrough], geometric mean: 88.5 ng/mL
Advanced solid tumors; 100 mg, part 1, n = 6
  Patients with stable disease: three of six patients
Advanced solid tumors; [7]
  Best response: Indeterminate
  Progression‐free survival: 29 days
Advanced solid tumors; 100 mg, part 1, patient: breast cancer (second listed)
  Progression‐free survival: 75 days
Advanced solid tumors; 100 mg, part 1, patient: colon cancer
  Progression‐free survival: 29 days
Advanced solid tumors; 100 mg, part 1, patient: medullary thyroid cancer
  Progression‐free survival: 57 days
Advanced solid tumors; 100 mg, part 1, patient: ovarian cancer
  Progression‐free survival: 121 days
Advanced solid tumors; 100 mg, part 1, patient: rectal cancer
  Progression‐free survival: 223 days
Advanced solid tumors; 125 mg, part 1, n = 6
  Patients with stable disease: one of six patients
Advanced solid tumors; 125 mg, part 1, patient: acinar cell carcinoma of pancreas
  Progression‐free survival: 29 days
Advanced solid tumors; 125 mg, part 1, patient: breast cancer
  Progression‐free survival: 57 days
Advanced solid tumors; 125 mg, part 1, patient: esophageal carcinoma
  Progression‐free survival: 280 days
Advanced solid tumors; 125 mg, part 1, patient: fibroma
  Progression‐free survival: 28 days
Advanced solid tumors; 125 mg, part 1, patient: inflammatory myofibroblastic tumor
  Progression‐free survival: 28 days
Advanced solid tumors; 125 mg, part 1, patient: rectal cancer
  Progression‐free survival: 32 days
Advanced solid tumors; 100 or 125 mg, part 1
  DCR (objective response or stable disease ≥24 weeks): 17%
  Objective responses (CR or PR): not reported
Advanced solid tumors; part 1, 100- or 125-mg dose (rectal and esophageal cancer)
  Patients with extended stable disease (≥24 weeks): two patients
Advanced solid tumors; part 1 overall (100 and 125 mg, n = 12)
  Patients with stable disease: Four patients had stable disease
[5]
  Antitumor activity when combined with tamoxifen: synergistic antitumor activity
  Retinoblastoma protein hyperphosphorylation: inhibition of retinoblastoma protein hyperphosphorylation
  Tumor cell growth: arrest tumor cell growth

## N#Cc1ccc(C(c2ccc(C#N)cc2)n2cncn2)cc1 [letrozole]
[6]; letrozole 2.5 mg alone, part 2, day 1 of cycles 2 and 3
  Predose plasma letrozole concentration, geometric mean Ctrough: 146 ^† ng/mL
[6]; palbociclib 125 mg + letrozole 2.5 mg, part 2, day 15 of cycles 1 and 2
  Predose plasma letrozole concentration, geometric mean Ctrough: 131 ^‡ ng/mL

From publication PMC4968608 (Cancer Science, 2016)
